Laboratory results from the NIST ThermoML archive (doi:10.1016/j.jct.2015.02.024).
Numbers after ± are expanded uncertainties.

Experiment: activity coefficient (dimensionless); of the first substance listed, at infinite dilution; xn = mol fraction of the nth substance listed
Conditions: 101 kPa, Liquid, Chromatography, x1 = 0

SMILES	activity coefficient (318.15 K)	activity coefficient (328.15 K)	activity coefficient (338.15 K)	activity coefficient (348.15 K)	activity coefficient (358.15 K)	activity coefficient (368.15 K)	activity coefficient (298.15 K)	activity coefficient (308.15 K)
C1CCCCC1 [cyclohexane] + C[N+]1(CCCO)CCOCC1.O=S(=O)([N-]S(=O)(=O)C(F)(F)F)C(F)(F)F	66 ± 4.5	55.7 ± 3.8	48.3 ± 3.3	42.2 ± 2.9	36.3 ± 2.5	32.2 ± 2.2		
CCC(=O)OC [methyl propanoate] + C[N+]1(CCCO)CCOCC1.O=S(=O)([N-]S(=O)(=O)C(F)(F)F)C(F)(F)F	1.45 ± 0.1	1.51 ± 0.1	1.57 ± 0.1	1.63 ± 0.11	1.68 ± 0.11	1.74 ± 0.12		
CCCCCCCC [octane] + C[N+]1(CCCO)CCOCC1.O=S(=O)([N-]S(=O)(=O)C(F)(F)F)C(F)(F)F	315 ± 22	265 ± 18	230 ± 16	199 ± 14	172 ± 12	152 ± 10		
CCOC(C)(C)C [2-ethoxy-2-methylpropane] + C[N+]1(CCCO)CCOCC1.O=S(=O)([N-]S(=O)(=O)C(F)(F)F)C(F)(F)F	16.1 ± 1.1	15.8 ± 1.1	15.6 ± 1.1	15.2 ± 1	15 ± 1	14.8 ± 1		
O [water] + C[N+]1(CCCO)CCOCC1.O=S(=O)([N-]S(=O)(=O)C(F)(F)F)C(F)(F)F	1.43 ± 0.09	1.36 ± 0.09	1.28 ± 0.08	1.21 ± 0.08	1.15 ± 0.07	1.1 ± 0.07		
CC(C)=O [acetone] + C[N+]1(CCCO)CCOCC1.O=S(=O)([N-]S(=O)(=O)C(F)(F)F)C(F)(F)F	0.486 ± 0.037	0.517 ± 0.039	0.543 ± 0.04	0.572 ± 0.041	0.596 ± 0.042	0.63 ± 0.04		
COC(C)(C)C [2-methoxy-2-methylpropane] + C[N+]1(CCCO)CCOCC1.O=S(=O)([N-]S(=O)(=O)C(F)(F)F)C(F)(F)F	4.94 ± 0.34	5.07 ± 0.35	5.22 ± 0.36	5.35 ± 0.36	5.45 ± 0.37	5.58 ± 0.38		
CC(C)O [propan-2-ol] + C[N+]1(CCCO)CCOCC1.O=S(=O)([N-]S(=O)(=O)C(F)(F)F)C(F)(F)F	1.83 ± 0.12	1.78 ± 0.12	1.74 ± 0.12	1.71 ± 0.11	1.67 ± 0.11	1.64 ± 0.11		
Cc1ccccc1C [1,2-dimethylbenzene] + C[N+]1(CCCO)CCOCC1.O=S(=O)([N-]S(=O)(=O)C(F)(F)F)C(F)(F)F	5.73 ± 0.39	5.76 ± 0.39	5.78 ± 0.39	5.81 ± 0.4	5.83 ± 0.4	5.86 ± 0.4		
c1ccsc1 [thiophene] + C[N+]1(CCCO)CCOCC1.O=S(=O)([N-]S(=O)(=O)C(F)(F)F)C(F)(F)F	1.89 ± 0.13	1.92 ± 0.13	1.95 ± 0.13	1.98 ± 0.13	2 ± 0.14	2.03 ± 0.14		
C#CCCCCCC [1-octyne] + C[N+]1(CCCO)CCOCC1.O=S(=O)([N-]S(=O)(=O)C(F)(F)F)C(F)(F)F	33 ± 2.3	31.3 ± 2.1	29.6 ± 2	28 ± 1.9	26.7 ± 1.8	25.5 ± 1.7		
CCC(C)O (stereo not given) [butan-2-ol] + C[N+]1(CCCO)CCOCC1.O=S(=O)([N-]S(=O)(=O)C(F)(F)F)C(F)(F)F	2.59 ± 0.18	2.52 ± 0.17	2.46 ± 0.17	2.4 ± 0.16	2.34 ± 0.16	2.29 ± 0.16		
CC(C)(C)O [2-methylpropan-2-ol] + C[N+]1(CCCO)CCOCC1.O=S(=O)([N-]S(=O)(=O)C(F)(F)F)C(F)(F)F	2.09 ± 0.14	2.06 ± 0.14	2.03 ± 0.14	2 ± 0.14	1.97 ± 0.13	1.95 ± 0.13		
CCCC(C)=O [pentan-2-one] + C[N+]1(CCCO)CCOCC1.O=S(=O)([N-]S(=O)(=O)C(F)(F)F)C(F)(F)F	1.24 ± 0.08	1.29 ± 0.08	1.34 ± 0.09	1.4 ± 0.09	1.44 ± 0.09	1.48 ± 0.1		
COC(C)=O [methyl ethanoate] + C[N+]1(CCCO)CCOCC1.O=S(=O)([N-]S(=O)(=O)C(F)(F)F)C(F)(F)F	0.926 ± 0.059	0.971 ± 0.061	1.02 ± 0.06	1.06 ± 0.07	1.1 ± 0.07	1.14 ± 0.07		
C=C(C)c1ccccc1 [(1-methylethenyl)benzene] + C[N+]1(CCCO)CCOCC1.O=S(=O)([N-]S(=O)(=O)C(F)(F)F)C(F)(F)F	5.97 ± 0.41	6.12 ± 0.42	6.28 ± 0.43	6.41 ± 0.44	6.55 ± 0.45	6.65 ± 0.45		
CCC[N+](=O)[O-] [1-nitropropane] + C[N+]1(CCCO)CCOCC1.O=S(=O)([N-]S(=O)(=O)C(F)(F)F)C(F)(F)F	1.24 ± 0.08	1.26 ± 0.08	1.28 ± 0.08	1.3 ± 0.08	1.32 ± 0.09	1.34 ± 0.09		
CCOC(C)=O [ethyl acetate] + C[N+]1(CCCO)CCOCC1.O=S(=O)([N-]S(=O)(=O)C(F)(F)F)C(F)(F)F	1.5 ± 0.1	1.56 ± 0.1	1.61 ± 0.11	1.66 ± 0.11	1.7 ± 0.11	1.77 ± 0.12		
C1CCOC1 [tetrahydrofuran] + C[N+]1(CCCO)CCOCC1.O=S(=O)([N-]S(=O)(=O)C(F)(F)F)C(F)(F)F	0.968 ± 0.061	1.03 ± 0.06	1.08 ± 0.07	1.12 ± 0.07	1.18 ± 0.08	1.23 ± 0.08		
CCCCCCC [heptane] + C[N+]1(CCCO)CCOCC1.O=S(=O)([N-]S(=O)(=O)C(F)(F)F)C(F)(F)F	223 ± 15	192 ± 13	162 ± 11	141 ± 10	116 ± 8	105 ± 7	345 ± 24	280 ± 19
CCCC(=O)OC [methyl butanoate] + C[N+]1(CCCO)CCOCC1.O=S(=O)([N-]S(=O)(=O)C(F)(F)F)C(F)(F)F	2.41 ± 0.16	2.48 ± 0.17	2.56 ± 0.17	2.62 ± 0.18	2.68 ± 0.18	2.75 ± 0.19		
CCCCO [butan-1-ol] + C[N+]1(CCCO)CCOCC1.O=S(=O)([N-]S(=O)(=O)C(F)(F)F)C(F)(F)F	3.23 ± 0.22	3.07 ± 0.21	2.96 ± 0.2	2.84 ± 0.19	2.73 ± 0.19	2.64 ± 0.18		
Cc1ccccc1 [toluene] + C[N+]1(CCCO)CCOCC1.O=S(=O)([N-]S(=O)(=O)C(F)(F)F)C(F)(F)F	4.03 ± 0.27	4.08 ± 0.28	4.11 ± 0.28	4.16 ± 0.28	4.19 ± 0.29	4.22 ± 0.29		
